Results from US20240366644A1, “ANTI-INFLAMMATORY APPLICATION OF GINSENOSIDE RD” (priority 2022, published 2024).

How the values were obtained:
[1] = test system: mice infected with COVID-19 Delta virus; assay: Lung histopathology of mice infected with COVID-19 Delta virus; type: in vivo, hACE2 transgenic C57BL/6 mice; conditions: for Interstitial pneumonia Mild / Interstitial pneumonia Moderate / Interstitial pneumonia Severe / Pulmonary hemorrhage Mild / Pulmonary hemorrhage Moderate / Pulmonary hemorrhage Severe: number of mice with this degree (four per group), five days
[2] = test system: influenza virus-infected mice; assay: TNF-α and IL-6 in serum and lung tissues of influenza virus-infected mice; type: in vivo, ICR mice
Protocol: A lump of absorbent cotton was put into a beaker of 200-300 mL, and then poured with an appropriate amount of ether (till the absorbent cotton was wetted). The beaker filled with the absorbent cotton was inverted, and added with the mice for anesthesia. When the mice were extremely excited and then obviously weak, that is, the anesthesia depth was moderate, the mice were taken out. The ether-anesthetized mice were placed on their backs, with the mouse head facing upward, and then were subjected to intranasal infection. A diluted influenza virus was added to nostrils at 0.03 mL/nostril. A blank group was administrated with normal saline, instead of a virus suspension.
The mice were randomly divided into four groups, that is, drug groups (10 mg/kg, 5 mg/kg), a model group, and a blank group were administrated by routine gavage on the day before infection, once a day; and the blank group and the model group were perfused with the equal volume of normal saline.
On the Day 1, Day 3, Day 5 and Day 7 after influenza virus infection, venous blood was collected from the plexus ophthalmicus, and blood from mice in each group was preserved, subjected to serum separation, and stored in a refrigerator for later use.
According to the instructions of a test kit, various detection and analysis were carried out, and TNF-α and IL-6 concentrations were calculated based on the standard detection and standard curve plotting.
On the Day 1, Day 3, Day 5 and Day 7 after influenza virus infection, after the mice were killed by bleeding from the eyeballs, the whole lungs were picked, homogenized in a homogenizer according to a ratio of lung weight (g):normal saline (mL)=1:9, and centrifuged; and a supernatant was stored in the refrigerator for later use. According to the instructions of a test kit, various detection and analysis were carried out, and TNF-α and IL-6 concentrations were calculated based on the standard detection and standard curve plotting.

[3] = test system: mice with chronic bronchial asthma; assay: Serum IL-4 and INF-γ in OVA-sensitised mice with chronic bronchial asthma; type: in vivo, BALB/c mice; conditions: for IL-4 in serum / INF-γ in serum: seven days, 24 h after the last excitation
Protocol: After adaptive feeding (20-25° C., a humidity of 50-60%) for one week, the mice were randomly divided into a blank group, a model group, a ginsenoside Rd high-dose group, and a ginsenoside Rd low-dose group, with ten […] in each group.
Except for the blank group, the mice in the other groups were intraperitoneally injected with 0.2 ml of sensitization solution (containing 50 μg of OVA) on the Day 1, Day 8 and Day 15, respectively. Starting on Day 22, the mice in each group were placed in a nebulizer and inhaled with 2% OVA for exciting asthma. This inhalation was performed once a day, 45 min each time, for seven consecutive days.
Administration by gavage was performed 30 min before each asthma stimulation, once a day for seven consecutive days. The blank group and the model group were administrated with normal saline by gavage, the high-dose group was administrated with 10 mg/kg ginsenoside Rd by gavage, and the low-dose group was administrated with 5 mg/kg ginsenoside Rd by gavage.
24 h after the last excitation, the mice were sampled, blood was collected from the eyeballs and separated to obtain serum, and IL-4 and INF-γ in the serum were detected.

[4] = high-dose 20 mg/kg gavage once a day
[5] = low-dose 10 mg/kg gavage once a day
[6] = high-dose 10 mg/kg gavage once a day, 1 d after infection
[7] = high-dose 10 mg/kg gavage once a day, 3 d after infection
[8] = high-dose 10 mg/kg gavage once a day, 5 d after infection
[9] = high-dose 10 mg/kg gavage once a day, 7 d after infection
[10] = low-dose 5 mg/kg gavage once a day, 1 d after infection
[11] = low-dose 5 mg/kg gavage once a day, 3 d after infection
[12] = low-dose 5 mg/kg gavage once a day, 5 d after infection
[13] = low-dose 5 mg/kg gavage once a day, 7 d after infection
[14] = high-dose 10 mg/kg gavage once a day
[15] = low-dose 5 mg/kg gavage once a day

## CC(C)=CCC[C@](C)(O[C@@H]1O[C@H](CO)[C@@H](O)[C@H](O)[C@H]1O)[C@H]1CC[C@]2(C)[C@@H]1[C@H](O)C[C@@H]1[C@@]3(C)CC[C@H](O[C@@H]4O[C@H](CO)[C@@H](O)[C@H](O)[C@H]4O[C@@H]4O[C@H](CO)[C@@H](O)[C@H](O)[C@H]4O)C(C)(C)[C@@H]3CC[C@]12C [Ginsenoside Rd, ginsenoside Rd]
[1]; 10 mg/kg and 20 mg/kg, compared with virus group
  lung lesions caused by COVID-19 Delta virus: good improvement effects on lung lesions
[1]; high-dose group 20 mg/kg
  pathological improvement of pulmonary hemorrhage and interstitial pneumonia compared with Dexamethasone: better than Dexamethasone
[1]; [4]
  Interstitial pneumonia Mild: 4
  Interstitial pneumonia Moderate: 0
  Interstitial pneumonia Severe: 0
  Pulmonary hemorrhage Mild: 4
  Pulmonary hemorrhage Moderate: 0
  Pulmonary hemorrhage Severe: 0
[1]; [5]
  Interstitial pneumonia Mild: 2
  Interstitial pneumonia Moderate: 2
  Interstitial pneumonia Severe: 0
  Pulmonary hemorrhage Mild: 2
  Pulmonary hemorrhage Moderate: 2
  Pulmonary hemorrhage Severe: 0
[2]; [6]
  Lung tissue IL-6: 43.56 ± 3.46 pg/mL
  Lung tissue TNF-α: 31.34 ± 3.25 pg/mL
  Serum IL-6: 46.21 ± 3.03 pg/mL
  Serum TNF-α: 26.53 ± 1.02 pg/mL
[2]; [7]
  Lung tissue IL-6: 43.47 ± 2.58 pg/mL
  Lung tissue TNF-α: 32.09 ± 2.51 pg/mL
  Serum IL-6: 46.52 ± 2.23 pg/mL
  Serum TNF-α: 26.83 ± 2.04 pg/mL
[2]; [8]
  Lung tissue IL-6: 42.39 ± 3.41 pg/mL
  Lung tissue TNF-α: 31.97 ± 2.94 pg/mL
  Serum IL-6: 45.79 ± 3.19 pg/mL
  Serum TNF-α: 26.99 ± 1.55 pg/mL
[2]; [9]
  Lung tissue IL-6: 42.21 ± 2.64 pg/mL
  Lung tissue TNF-α: 30.08 ± 3.28 pg/mL
  Serum IL-6: 45.23 ± 2.95 pg/mL
  Serum TNF-α: 25.88 ± 1.66 pg/mL
[2]; [10]
  Lung tissue IL-6: 46.86 ± 2.76 pg/mL
  Lung tissue TNF-α: 32.98 ± 2.27 pg/mL
  Serum IL-6: 47.15 ± 2.31 pg/mL
  Serum TNF-α: 28.32 ± 1.21 pg/mL
[2]; [11]
  Lung tissue IL-6: 46.29 ± 2.05 pg/mL
  Lung tissue TNF-α: 34.72 ± 2.44 pg/mL
  Serum IL-6: 47.22 ± 2.57 pg/mL
  Serum TNF-α: 28.19 ± 1.27 pg/mL
[2]; [12]
  Lung tissue IL-6: 46.21 ± 2.73 pg/mL
  Lung tissue TNF-α: 32.14 ± 2.16 pg/mL
  Serum IL-6: 46.62 ± 2.01 pg/mL
  Serum TNF-α: 28.07 ± 1.43 pg/mL
[2]; [13]
  Lung tissue IL-6: 46.52 ± 3.02 pg/mL
  Lung tissue TNF-α: 30.86 ± 3.05 pg/mL
  Serum IL-6: 46.59 ± 3.46 pg/mL
  Serum TNF-α: 27.94 ± 1.16 pg/mL
[2]; mouse, in vivo
  inflammatory factors TNF-α and IL-6 after influenza virus infection: could down-regulate the related inflammatory factors
[3]; [14]
  IL-4 in serum: 36.11 ± 10.98 pg/mL
  INF-γ in serum: 102.48 ± 7.81
[3]; [15]
  IL-4 in serum: 10.72 ± 16.74 pg/mL
  INF-γ in serum: 95.34 ± 13.59
[3]; mouse, in vivo
  expression of IL-4: reduce the expression of IL-4
  expression of INF-γ: increase the expression of INF-γ
